Measured values as given in patent US8513267B2, “4-anilinoquinazoline derivatives with adenosine-kinase inhibitor properties” (Universidade Estadual de Campinas-Unicamp, priority 2004, dated 2013).
Read-outs that look alike come from different tables or passages of the source. One block for each compound: values may come before it.

Assays:
isolated hearts [1] = experiment: Concentration-effect experiments with adenosine with and without 8-PT in isolated hearts; parameters: species or system rat; details: for EC50: Rattus norvegicus
Description: In Table 3, we present values of Emax, EC50 (nM) and LogEC50 in the fractional pressor response to infusion of increased concentrations of adenosine in isolated hearts perfused with pure HEPES buffer, or with HEPES buffer with 8-PT (mean±S.E.M.).
Both effects were altered by the action of the unspecific adenosine receptor inhibitor, 8-PT (1 μM), added to the perfusion buffer. According to results presented in FIG. 13, the increase in systolic pressure in response to infusion of increased concentrations of adenosine, both in control hearts as in those treated with the unspecific adenosine inhibitor, was almost the same. […] Concerning heart rate, the adenosine bradycardia effect was reduced when the inhibitor was present, showing a decrease of about 15% if compared to basal values of Table 4, where we present initial and final heart rate values (bpm) in the response to infusion of increased concentrations of adenosine in isolated hearts perfused with pure HEPES buffer and HEPES buffer with 8-PT (mean±S.E.M.).

isolated rat hearts [2] = experiment: Concentration-response of quinazoline compounds on left ventricle systolic pressure and heart rate of isolated rat hearts; details: for increase in systolic pressure: according to basal absolute values of systolic pressure; for bradycardia response: decrease in heart rate compared to basal values; for Final heart rate: final value after infusions of increased concentrations; for Emax in the fractional pressor response: fractional values; for Initial heart rate: initial value before infusions of increased concentrations; for maximum pressor response (LVP): isolated rat hearts, infused concentrations 30 pM-2 μM
From the text: Systolic pressure responses of the left ventricle were expressed as fractional values, while heart rate responses were expressed as absolute values. […] EC50: concentration of the drug that produces half of the maximum effect.

cardiac adenosine kinase = molecular target: T1, cardiac adenosine kinase (Rattus norvegicus, UniProt Q64640); experiment: HPLC adenosine kinase activity test with derivatized adenosine as substrate in myocardium extracts; format: biochemical; details: fluorescence detection
T1 construct: used as a substrate in myocardium extracts; from tissue; host or cells: rat myocardium (heart) extract

isolated rat hearts [3] = experiment: Concentration-response in isolated heart with heart rate held constant by electrical stimulator; details: heart rate held constant by electrical stimulator (FIG. 12)
From the text: In order to confirm our hypothesis that pressor response of compound 4i depends on bradycardia and not on a direct action of 4i in the inotropism of isolated rat hearts, we conducted experiments where heart rate was held constant during infusion of increased concentrations of 4i (Example 17), through the action of an electrical stimulator. In FIG. 12 we represent the concentration-response relationship to 4i (Example 17) in isolated heart submitted to electrical stimulus.

isolated hearts [4] = experiment: Isolated hearts perfused with propanolol, diltiazem or reduced calcium concentration; parameters: species or system rat; details: propanolol or diltiazem blocking, or decreased calcium in perfusion buffer
From the text: There was also a negative correlation between levels of ventricular pressure and heart rate in isolated hearts treated with increased doses of compound 4i (Example 17) in the presence of blockers like propanolol and diltiazem, and reduced concentrations of calcium in the perfusion buffer. In FIG. 11, we presented diagrams of the correlation between increase in systolic pressure and decrease in heart rate in isolated hearts submitted to injections (bolus) of 4i (Example 17) perfused with propanolol, diltiazem and with reduction of the calcium concentration in the perfusion buffer. Data are presented as mean±S.E.M.
Results obtained with 4i (Example 17) and other quinazoline compounds point out that the main functional effect of these compounds on isolated rat hearts is bradycardia, and the pressor effect depends on bradycardia, and thus is a consequence of particularities of the preparation used (i.e., isolated heart) and not a direct effect. Because the bradycardia response was not altered by propanolol or diltiazem blocking, or even by decrease in calcium concentration in the perfusion buffer, our hypothesis is that this effect of quinazoline compounds depends on a direct effect of them on pacemaker cells, or even on an indirect effect through secretion of autocrine or paracrine compounds. […]

isolated rat hearts [5] = experiment: Heart rate of isolated rat hearts perfused with HEPES buffer with 1 nM 4i with or without 8-PT
Description: In FIG. 14, we present diagrams that represent heart rates of isolated rat hearts perfused with pure HEPES buffer (control), or HEPES buffer with 1 nM of 4i (Example 17), or HEPES buffer with 1 nM of 4i (Example 17) plus 1 μM of unspecific inhibitor of adenosine receptors, 8-PT (4i+8-PT). […] However, perfusion of hearts with 4i (Example 17) and 8-PT annulled bradycardia caused by 4i (Example 17), confirming our hypothesis that the quinazoline compound could be acting in a direct or indirect way on adenosine receptors. In Table 5, we present heart rate values (bpm) from individual experiments of isolated hearts perfused with pure HEPES buffer (control), HEPES buffer with 1 nM of 4i (Example 17), or HEPES buffer with 1 nM of 4i (Example 17) and […] of 8-PT (mean±S.E.M.).

[6] = tested on: myocardium of isolated rat hearts; experiment: Adenosine dosage (HPLC) in the myocardium of isolated rat hearts
From the text: We conducted adenosine dosages in the myocardium of isolated rat hearts with compounds 4d (Example 7) and 4i (Example 17). Chromatograms obtained through HPLC experiments in rat myocardium extracts for dosage of tissue adenosine and AMP are presented in FIG. 6.

[7] = Rattus norvegicus, mean±S.E.M., given as negative log values, read-out: LogEC50 in the fractional pressor response (converted)
[8] = Rattus norvegicus, mean±S.E.M., infusion of increased concentrations, read-out: EC50 in the fractional pressor response
[9] = mean±S.E.M., infusion of increased concentrations, hydrochloride

T1 sequence (Q64640 whole entry): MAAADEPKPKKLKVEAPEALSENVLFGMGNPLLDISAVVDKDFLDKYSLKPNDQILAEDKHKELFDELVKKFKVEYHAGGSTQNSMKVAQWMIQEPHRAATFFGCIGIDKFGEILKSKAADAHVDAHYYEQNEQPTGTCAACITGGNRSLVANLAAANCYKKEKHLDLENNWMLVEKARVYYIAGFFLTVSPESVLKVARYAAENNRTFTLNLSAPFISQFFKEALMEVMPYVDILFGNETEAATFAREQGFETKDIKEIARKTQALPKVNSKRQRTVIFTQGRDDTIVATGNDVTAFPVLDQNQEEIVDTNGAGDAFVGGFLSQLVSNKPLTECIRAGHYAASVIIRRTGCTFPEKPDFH

melting point: 227 to 229 °C
Compound: COc1cc2ncnc(Nc3ccc(C)cc3)c2cc1OC.Cl

melting point: 218 to 220 °C
Compound: COc1cc2ncnc(Nc3ccc(C(C)=O)cc3)c2cc1OC.Cl

adenosine kinase inhibition (cardiac adenosine kinase): adenosine kinase inhibitors
Compound: COc1cc2ncnc(Nc3cccc(Br)c3)c2cc1OC.Cl [4d, 6,7-Dimethoxy-4-(3′-bromoanilino)quinazoline hydrochloride]
effect on amount of myocardial adenosine ([6]; chromatograms of rat myocardium extracts (FIG. 6)): increased substantially
myocardial adenosine value ([6]; hearts treated with compound, average, basal value 0.48): 0.75 nmol/mg of protein
EC50 (isolated rat hearts [2]; [7]): 6.31 nM
EC50 (isolated rat hearts [2]; [8]): 6 ± 1.2 nM
increase in systolic pressure (isolated rat hearts [2]): ~14%
bradycardia response (isolated rat hearts [2]): ~25%
Final heart rate (isolated rat hearts [2]; mean±S.E.M.): 164 ± 3 bpm
Emax in the fractional pressor response (isolated rat hearts [2]; [9]): 0.3±0.1
Initial heart rate (isolated rat hearts [2]; mean±S.E.M.): 219 ± 12 bpm
maximum pressor response (LVP) (isolated rat hearts [2]): 8±4 mmHg

melting point: 266 to 269 °C
Compound: COc1cc2ncnc(Nc3ccc(I)cc3)c2cc1OC.Cl

The remaining lines, values behind:

Compound: Nc1ncnc2c1ncn2[C@@H]1O[C@H](CO)[C@@H](O)[C@H]1O [Adenosine, adenosine]
increase in ventricular pressure (isolated hearts [1]; 1 μM adenosine (maximum response)): 16±2 mmHg
decrease in heart rate (isolated hearts [1]; 8-PT (1 μM) present, compared to basal values): about 15%
EC50 (isolated hearts [1]; HEPES buffer with 8-PT (1 μM), read-out: EC50 pressor response): 30 ± 19 nM
EC50 (isolated hearts [1]; pure HEPES buffer, given as negative log values, read-out: LogEC50 in the fractional pressor response (converted)): 6.31 nM
EC50 (isolated hearts [1]; pure HEPES buffer, mean±S.E.M., read-out: EC50 pressor response): 7 ± 1.4 nM
EC50 (isolated hearts [1]; pure HEPES buffer, read-out: EC50 bradycardia response): 1.8 ± 1.4 nM
reduction in heart rate (isolated hearts [1]; compared to absolute basal values, 1 μM adenosine (maximum response)): approximately 19%
Final heart rate (isolated hearts [1]; pure HEPES buffer, final value after increased concentrations): 185 ± 2 bpm
Initial heart rate (isolated hearts [1]; pure HEPES buffer, initial value): 228 ± 2 bpm
Emax in the fractional pressor response (isolated hearts [1]; pure HEPES buffer, mean±S.E.M.): 0.93 ± 0.05

Compound: COc1cc2ncnc(Cl)c2cc1OC [3a, 4-chloro-6,7-dimethoxyquinazoline]
EC50 (isolated rat hearts [2]; [7]): 0.631 nM
EC50 (isolated rat hearts [2]; [8]): 0.6 ± 0.5 nM
increase in systolic pressure (isolated rat hearts [2]): ~30%
bradycardia response (isolated rat hearts [2]): ~29%
Final heart rate (isolated rat hearts [2]; mean±S.E.M.): 173 ± 1 bpm
Emax in the fractional pressor response (isolated rat hearts [2]; mean±S.E.M., infusion of increased concentrations): 0.6±0.2
Initial heart rate (isolated rat hearts [2]; mean±S.E.M.): 242 ± 5 bpm

Compound: COc1cc2ncnc(Nc3cccc(N(C)C)c3)c2cc1OC.Cl [4i, 6,7-Dimethoxy-4-(3′-N′,N′-dimethylaminoanilino)quinazoline hydrochloride]
adenosine kinase inhibition (cardiac adenosine kinase): adenosine kinase inhibitors
increase in systolic pressure (isolated rat hearts [2]): approximately 35%
bradycardia response (isolated rat hearts [2]): approximately 24%
Final heart rate (isolated rat hearts [2]; mean±S.E.M.): 173 ± 8 bpm
Emax in the fractional pressor response (isolated rat hearts [2]; [9]): 0.9±0.2
Initial heart rate (isolated rat hearts [2]; mean±S.E.M.): 228 ± 7 bpm
maximum pressor response (LVP) (isolated rat hearts [2]): 27±3 mmHg
LogEC50 in the fractional pressor response (isolated rat hearts [2]; mean±S.E.M., given as negative log values): −9.9 ± 0.3
EC50 (isolated rat hearts [2]; mean±S.E.M., infusion of increased concentrations, read-out: EC50 in the fractional pressor response): 0.1 ± 0.03 nM
pressor response with heart rate controlled (isolated rat hearts [3]): almost annulled
bradycardia response under blocking (isolated hearts [4]): not altered
reduction of heart rate (isolated rat hearts [5]; 1 nM 4i, compared to control hearts): approximately 17%
Heart Rate (isolated rat hearts [5]; HEPES buffer with 1 nM 4i, control 233 ± 7): 194 ± 7 bpm

Compound: COc1cc2ncnc(Nc3cccc(C(C)=O)c3)c2cc1OC.Cl
melting point: 219 to 221 °C
